From ChEMBL document CHEMBL1141708, “Structure-activity relationship of ortho- and meta-phenol based LFA-1 ICAM inhibitors” (Bioorg Med Chem Lett, 2008) come the findings set out here.

The nature of series [1]: in vivo. The settings on record: rat.
Series [2] is described as follows: in vivo. The settings on record: rat, po.

`O=C(/C=C/c1ccc(Sc2ccccc2OC[C@H]2CC[C@@H](C(=O)O)CC2)c(C(F)(F)F)c1C(F)(F)F)N1CCOCC1` showed a half-life in series [1] of 3.6 h. Also, the bioavailability in series [2] was 9%.

`O=C(/C=C/c1ccc(Sc2cccc(O[C@H]3CC[C@@H](C(=O)O)CC3)c2)c(C(F)(F)F)c1C(F)(F)F)N1CCOCC1` had a half-life in series [1] of 2.6 h. The bioavailability in series [2] came out at 31%.

As usually defined, the half-life is how long it takes for the measured level to halve. Higher therefore signals slow decline. Broadly, the bioavailability is dose-corrected exposure relative to a reference, in per cent. A high value points to much systemic uptake.
